Patent US8980926B2, “2-aminoindole compounds and methods for the treatment of malaria” (Genzyme Corporation, priority 2009, dated 2015)
Where two headings read alike, the source gives them in different places.

Legend:
malaria = assay: In vivo efficacy in an animal (rodent) model of malaria (FIGS. 1, 2); settings: for in vivo efficacy (reducing parasitemia) / in vivo efficacy (treatment of malaria): 50 mg/kg dose
[1] = system: Plasmodium falciparum strain Dd2; assay: In vitro potency against P. falciparum strain Dd2; format: cell-based; settings: read-out: Potency (IC50; nM) Plasmodium spp. Pf Dd2
P. berghei ANKA strain = assay: In vitro potency against P. berghei ANKA; format: cell-based; settings: Plasmodium berghei, read-out: Potency (IC50; nM) Plasmodium spp. Pb ANKA
[2] = Mammalian cytotoxicity, kidney epithelial; format: cell-based; settings: normal human renal proximal tubule cells; read-out: Selectivity, Mammalian cytotoxicity (IC50; μM) Kidney epithelial
P. berghei N-clone = assay: In vivo efficacy against P. berghei in mice (4-day suppressive test, oral); design: species or system P. berghei in Swiss Albino mice; settings: for Average Day of Recrudescence: Study Day; for No. Cured: animals cured/group; for Recrudescence (no. animals/total): no parasites on Day 5 but later regressed; for % Suppression Day 5: vs untreated controls; for cures: doses of 100-200 mg/kg/day; for % of group without parasites: FIG. 3D
From the text: Because of ethical issues and costs, the acute P. berghei model in rodents is considered the “gold standard” for assessing anti-malarial efficacy in animal models. This model is adapted from Peters' “4-day suppressive test” (Peters, W. 1987. Chemotherapy and Drug Resistance in Malaria, p. 102-115, 2ed, vol. 1. Academic Press, Orlando, Fla.; Peters, W. 1975. The chemotherapy of rodent malaria, XXII. The value of drug-resistant strains of P. berghei in screening for blood schizontocidal activity. Ann Trop Med Parasitol 69:155-171). All studies were conducted in accordance with the Guide for the Care and Use of Laboratory Animals (National-Research-Council. 1996. Guide for the Care and Use of Laboratory Animals. National Academy Press, Washington, D.C.) and the PHS guidelines. Animals were maintained according to NIH guidelines and were allowed to acclimatize for 1 week prior to the commencement of studies. On Day 0, groups of 4-6-week old female Swiss Albino mice (n=5) were infected by tail vein injection with 0.2 ml heparinized blood diluted to contain 1×10^7 N-clone parasites. The aminoindole analogs were formulated in 1.6% lactic acid mixed sodium salt, 1% Tween 80, 9% ethanol and 20% Cerestar (hydroxypropyl β-cyclodextrin; Wacker Chimie) and were administered by oral gavage. […] Animals in the Control-group received vehicle alone. Dose concentration and frequency of dosing were based upon preliminary tolerability/exposure studies. On Day 4 post-infection (5th day of assay) blood was collected by tail-nick, and thin smear microscope slides were prepared and stained using Diff Quick®. Parasitized erythrocytes were counted and compared with the total number of erythrocytes per microscopic field to determine the percent parasitemia. A minimum of 350 erythrocytes were counted. Animals showing no detectable parasites on Day 4 were examined every 2-3 days to determine whether cure was sterile. Animals with no detectable parasites 28 days after cessation of dosing (Study Day 33) were considered cured.

[3] = Mammalian cytotoxicity, dermal fibroblast; format: cell-based; settings: human, normal human dermal fibroblasts (Clonetics #CC-2509); read-out: Selectivity, Mammalian cytotoxicity (IC50; μM) Dermal Fibroblast
Erythrocyte lysis = format: cell-based; settings: erythrocytes, read-out: Selectivity, Mammalian cytotoxicity (IC50; μM) Eryth. Lysis
P. falciparum strain 3D7 = assay: In vitro potency against P. falciparum strain 3D7 (SYBR green/DAPI); format: cell-based; settings: Plasmodium falciparum
hERG = target: T1, hERG (Homo sapiens, UniProt Q12809); assay: hERG in Chinese hamster ovary cells; format: cell-based
T1 construct: expressed in transfected cells; host or cells: Chinese hamster ovary cells (from the earlier reading's assay name)

P. knowlesi strain H1 = assay: In vitro potency against P. knowlesi H1 in Rhesus blood cells (3H-hypoxanthine incorporation); format: cell-based; settings: Plasmodium knowlesi, in Macaca mulatta, read-out: Potency (IC50; nM) Plasmodium spp. Pk H1
Description: Selected compounds were tested against P. knowlesi H1 strain parasites cultured in Rhesus blood cells as a surrogate for P. vivax infections using the method of Kocken and coworkers (Kocken, C. H., H. Ozwara, A. van der Wel, A. L. Beetsma, J. M. Mwenda, and A. W. Thomas. 2002. Plasmodium knowlesi provides a rapid in vitro and in vivo transfection system that enables double-crossover gene knockout studies. Infect Immun 70:655-660). Briefly, P. knowlesi were cultured in 2% Rhesus macaque erythrocytes (New England Primate Research Center) in RPMI culture media containing 10% Human O+ serum (Interstate Blood Bank). Schizont stage parasites were purified by floatation in 60% Percoll (GE life sciences) and allowed to reinvade to generate a synchronous population of ring stage parasites. Drug assays were performed by plating ring stage parasites at 0.5% parasitemia in triplicate, in RPMI containing 2.5 μg/ml hypoxanthine. Parasites were incubated for 24 hours with serially diluted test compounds. After 24 hours, thin smears were made to confirm that reinvasion had occurred, 0.5 μCi ^3H-labeled hypoxanthine (Perkin Elmer) were added to each well, and parasites were allowed to progress through S-phase to early schizonts. Cells were then harvested via glass filter plates and ^3H incorporation was measured by scintillation counting. Values were normalized to percentage of controls containing no drug, and IC50 values were generated (GraphPad Prism®).

[4] = read-out: Potency (IC50; nM) Plasmodium spp. Pf 3D7
[5] = reductions in parasitemia, read-out: IC50 values

T1 sequence (Q12809 whole entry): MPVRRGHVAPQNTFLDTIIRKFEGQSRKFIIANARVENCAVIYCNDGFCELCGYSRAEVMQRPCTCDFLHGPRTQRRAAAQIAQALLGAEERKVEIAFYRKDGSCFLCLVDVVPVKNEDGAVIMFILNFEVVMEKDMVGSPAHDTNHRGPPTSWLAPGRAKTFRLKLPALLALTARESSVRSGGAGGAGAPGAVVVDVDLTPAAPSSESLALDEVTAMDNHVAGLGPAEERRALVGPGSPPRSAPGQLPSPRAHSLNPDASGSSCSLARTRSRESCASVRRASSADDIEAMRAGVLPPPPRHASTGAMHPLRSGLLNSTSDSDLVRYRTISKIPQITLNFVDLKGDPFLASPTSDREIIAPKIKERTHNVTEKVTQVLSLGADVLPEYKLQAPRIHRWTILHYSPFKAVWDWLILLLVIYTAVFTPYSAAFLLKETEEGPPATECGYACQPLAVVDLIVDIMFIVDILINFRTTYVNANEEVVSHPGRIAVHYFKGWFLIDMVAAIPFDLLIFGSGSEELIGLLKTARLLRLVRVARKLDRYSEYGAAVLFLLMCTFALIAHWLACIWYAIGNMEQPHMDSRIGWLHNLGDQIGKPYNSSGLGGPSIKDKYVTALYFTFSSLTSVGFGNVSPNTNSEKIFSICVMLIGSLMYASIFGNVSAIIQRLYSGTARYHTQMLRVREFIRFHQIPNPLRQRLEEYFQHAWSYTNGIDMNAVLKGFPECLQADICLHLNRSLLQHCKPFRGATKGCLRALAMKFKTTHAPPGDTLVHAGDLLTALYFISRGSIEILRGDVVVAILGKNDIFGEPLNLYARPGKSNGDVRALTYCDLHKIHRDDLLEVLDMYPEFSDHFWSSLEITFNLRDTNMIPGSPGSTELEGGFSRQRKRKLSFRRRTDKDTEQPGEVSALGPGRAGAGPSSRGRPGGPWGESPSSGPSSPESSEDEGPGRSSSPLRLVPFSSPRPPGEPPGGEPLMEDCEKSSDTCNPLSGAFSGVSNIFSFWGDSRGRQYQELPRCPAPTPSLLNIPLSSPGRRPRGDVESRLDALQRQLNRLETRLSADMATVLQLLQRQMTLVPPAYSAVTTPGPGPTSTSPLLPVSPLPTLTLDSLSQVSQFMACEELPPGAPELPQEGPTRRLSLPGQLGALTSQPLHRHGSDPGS

IC50 [1] [nM]	IC50 (P. berghei ANKA strain) [nM]	IC50 (P. falciparum strain 3D7; [4]) [nM]	IC50 (P. falciparum strain 3D7; [5]) [nM]	IC50 (P. knowlesi strain H1) [nM]	Structure (SMILES)	IC50 [2] [µM]	Average Day of Recrudescence (P. berghei N-clone; 50 mg/kg/day b.i.d. p.o.) [days]	No. Cured (P. berghei N-clone; 50 mg/kg/day b.i.d. p.o.)	Recrudescence (no. animals/total) (P. berghei N-clone; 50 mg/kg/day b.i.d. p.o.)	% Suppression Day 5 (P. berghei N-clone; 50 mg/kg/day b.i.d. p.o.) [%]	No. Cured (P. berghei N-clone; 100 mg/kg/day b.i.d. p.o.)	% Suppression Day 5 (P. berghei N-clone; 100 mg/kg/day b.i.d. p.o.) [%]	cures (P. berghei N-clone)	IC50 [3] [µM]	IC50 (Erythrocyte lysis) [µM]	Selectivity, hERG (μM) CHO (hERG) [µM]	Average Day of Recrudescence (P. berghei N-clone; 100 mg/kg/day b.i.d. p.o.) [days]	Recrudescence (no. animals/total) (P. berghei N-clone; 100 mg/kg/day b.i.d. p.o.)	also measured
49		23	1 to 100	38	CCOc1ccc(F)cc1C1(O)C(N)=Nc2ccc(Cl)cc21 (racemic) [Compound 142, 2-amino-5-chloro-3-(2-ethoxy-5-fluorophenyl)-3H-indol-3-ol]	> 195					0/5	99	able to affect cures	> 195	> 125	21	11	1/5	Average Day of Recrudescence (P. berghei N-clone; 200 mg/kg/day b.i.d. p.o.): 13 days; No. Cured (P. berghei N-clone; 200 mg/kg/day b.i.d. p.o.): 3/5; Recrudescence (no. animals/total) (P. berghei N-clone; 200 mg/kg/day b.i.d. p.o.): 1/5; % Suppression Day 5 (P. berghei N-clone; 200 mg/kg/day b.i.d. p.o.): 99%; % of group without parasites (P. berghei N-clone; day 5, 100/mg/kg/day): 20%; % of group without parasites (P. berghei N-clone; day 5, 200/mg/kg/day): 80%; % of group without parasites (P. berghei N-clone; day 30, 200/mg/kg/day): 60%
347	2990	108	100 to 500	190	CC(C)C1(O)C(N)=Nc2ccc(Cl)cc21 (stereo not shown) [Compound 39]	> 62.5	10	0/5	3/5	98	0/5	99		> 62.5	> 178		13	3/5	
37		22	1 to 100	90	CC(C)Oc1ccccc1C1(O)C(N)=Nc2ccc(Cl)cc21 (stereo not shown) [Compound 146]	> 188					0/5)	99		> 188	> 120	19	6	1/5	

The remaining lines, values behind:

Structure (SMILES)	IC50 [1] [nM]	IC50 (P. berghei ANKA strain) [nM]	IC50 (P. falciparum strain 3D7; [4]) [nM]	IC50 (P. falciparum strain 3D7; [5]) [nM]	IC50 (P. knowlesi strain H1) [nM]	IC50 [2] [µM]	Average Day of Recrudescence (P. berghei N-clone; 50 mg/kg/day b.i.d. p.o.) [days]	No. Cured (P. berghei N-clone; 50 mg/kg/day b.i.d. p.o.)	Recrudescence (no. animals/total) (P. berghei N-clone; 50 mg/kg/day b.i.d. p.o.)	% Suppression Day 5 (P. berghei N-clone; 50 mg/kg/day b.i.d. p.o.) [%]	No. Cured (P. berghei N-clone; 100 mg/kg/day b.i.d. p.o.)	% Suppression Day 5 (P. berghei N-clone; 100 mg/kg/day b.i.d. p.o.) [%]	cures (P. berghei N-clone)	IC50 [3] [µM]	IC50 (Erythrocyte lysis) [µM]	Selectivity, hERG (μM) CHO (hERG) [µM]	Average Day of Recrudescence (P. berghei N-clone; 100 mg/kg/day b.i.d. p.o.) [days]	Recrudescence (no. animals/total) (P. berghei N-clone; 100 mg/kg/day b.i.d. p.o.)	also measured
NC1=Nc2ccc(Cl)cc2[C@]1(O)c1ccccc1 [Compound 3]	675	1690	313	100 to 500		> 242	12	2/5	3/5	100	5/5	100	able to affect cures	> 242	> 155				in vivo efficacy (reducing parasitemia) (malaria; FIGS. 2A and 2B): efficacious for reducing parasitemia; in vivo efficacy (treatment of malaria) (malaria; FIGS. 2A and 2B): effectively treated malaria
NC1=Nc2ccc(Cl)cc2C1(O)c1ccccc1 (stereo not shown) [Compound 1]	285	1560	200	100 to 500	336	> 242	13	0/5	5/5	100				> 242	> 155	>25			in vivo efficacy (treatment of malaria) (malaria; IP administration for four days, FIG. 1): effectively treated malaria; in vivo efficacy, dose dependence (malaria; IP administration for four days at various doses, FIG. 1): dose-response relationship was observed
NC1=Nc2ccc(Cl)cc2[C@@]1(O)c1ccccc1 [Compound 2]	1460	1360	665	100 to 500		> 242		0/5		80				> 242	> 155				in vivo efficacy (reducing parasitemia) (malaria; FIGS. 2A and 2B): efficacious for reducing parasitemia
Cc1ccc2c(c1)C(O)(c1ccccc1)C(N)=N2 (stereo not shown) [Compound 37]	455		183	1 to 100	318	> 62.5					3/5	100	able to affect cures	> 62.5	> 168		17	2/5	No. Cured (P. berghei N-clone; 200 mg/kg/day b.i.d. p.o.): 5/5; % Suppression Day 5 (P. berghei N-clone; 200 mg/kg/day b.i.d. p.o.): 100%
